In paper PMC10017027, “Design and Synthesis of Novel HIV-1 NNRTIs with Bicyclic Cores and with Improved Physicochemical Properties” (Journal of Medicinal Chemistry, 2023):
In brackets after ≈: the same amount, converted by molar mass. Where two headings read alike, the source gives them in different places.

Tests used:
HIV-1 (IIIB strain) = assay: MT-4 antiviral cytopathic effect assay, HIV-1 IIIB; type: cell-based; settings: for EC50: Human immunodeficiency virus 1, IIIB, MT4, protects 50% of MT-4 cells against HIV-1-induced cell killing, HIV-1 IIIB, WT, read-out: EC50 MT4
Protocol: (§1) The prepared compounds were tested for their anti-HIV-1 activity (Table 1). A viral cytopathic effect assay in MT-4 cells with HIV-1 IIIB virus was used to determine compound potency (EC50, 50% cell viability) in protecting virus induced cell killing. Compound cytotoxicity was assessed in MT-4 cells in the absence of virus (CC50, 50% cytotoxicity).
(§2) Compounds were tested in a high-throughput 384-well assay format for their ability to inhibit the virus replication-induced cytopathic effect in MT-4 cell cultures acutely infected with HIV-1 (IIIB strain), HXB2, HXB2-K103N, and HXB2-Y181C. Compounds were serially diluted (1:3) in DMSO on 384-well polypropylene plates and further diluted 200-fold into complete RPMI media (10% FBS, 1% P/S) using Biotek Micro Flow and an Agilent ECHO acoustic dispenser. Each plate contained up to eight test compounds, with negative (no drug control) and 5 μM AZT positive controls. MT-4 cells were further diluted in complete RPMI media and added to each plate using a Micro-Flo dispenser. After five days of incubation in a humidified and temperature-controlled incubator (37 °C), Cell Titer Glo (Promega) was added to the assay plates to quantify the amount of […]. EC50 and CC50 values were defined as the compound concentration that causes a 50% decrease in luminescence signal and were calculated using a sigmoidal dose-response model to generate curve fits.

in vitro = type: cell-based; settings: human
Protocol: as §1, with “cytotoxicity). […] ETV contains bromo and amino substitutions on the DAPY core. […] Likely, with the smaller cyano arm I in 1, 3, and 5, the cores could be further elaborated to optimize the compound position in the pocket and to improve potency.” for “cytotoxicity).”
as §2

HIV-1 HXB2 = assay: MT-4 antiviral cytopathic effect assay, HXB2 wild-type virus; type: cell-based; settings: Human immunodeficiency virus 1, MT4; HIV-1 HXB2 wild-type, MT-4 cells; read-out: EC50 HXB2
Protocol: as §1, §2

HIV-1 HXB2 K103N variant = assay: MT-4 antiviral cytopathic effect assay, HXB2-K103N; type: cell-based; settings: for EC50: Human immunodeficiency virus 1, HXB2, read-out: EC50 K103N
Protocol: as §1, with “cytotoxicity). […] ETV contains bromo and amino substitutions on the DAPY core. […] Likely, with the smaller cyano arm I in 1, 3, and 5, the cores could be further elaborated to optimize the compound position in the pocket and to improve potency.” for “cytotoxicity).”
as §2

HIV-1 HXB2 Y181C variant = assay: MT-4 antiviral cytopathic effect assay, HXB2-Y181C; type: cell-based; settings: for EC50: Human immunodeficiency virus 1, HXB2, read-out: EC50 Y181C
Protocol: as §1, with “cytotoxicity). […] ETV contains bromo and amino substitutions on the DAPY core. […] Likely, with the smaller cyano arm I in 1, 3, and 5, the cores could be further elaborated to optimize the compound position in the pocket and to improve potency.” for “cytotoxicity).”
as §2

[1] = Solubility assessment, shake-flask method; type: physicochemical; settings: for solubility: shake-flask; for HCl sol / PBS sol: supplement CSV
Protocol: Compound solubility was measured at Analiza (Cleveland, OH) by the standard shake-flask method at pH 1.2 and 7.4 and quantitated by HPLC-UV.

[2] = MDCK permeability assay (A to B); type: in vitro ADME, Canine; settings: dog, MDCK
Excerpt: Compounds were further tested in a Madin–Darby Canine Kidney (MDCK) assay to evaluate their potential for oral absorption. […] Additionally, there was no trend for better permeability when comparing arm I versus arm II when matched with the same core. The size of the B ring had the greatest influence on Papp with the trend being five-membered > six-membered > seven-membered rings (Table 1).
cMdr1-KO cells were maintained in Dulbecco’s modified Eagle’s medium (DMEM) with sodium pyruvate and GlutaMax, supplemented with 1% Pen/Strep and 10% fetal bovine serum in an incubator set at 37 °C, 90% humidity, and 5% CO2. MDCKII- cMdr1-KO cells were grown to confluence over 3 days on 96-well PET plates with 1 μm pore size, polyester membrane (Corning 3392). Experiments were run using HBSS donor buffer from Invitrogen containing an additional 10 mM HEPES, 15 mM glucose, and 0.1% BSA adjusted to pH 7.4. The receiver well had HBSS buffer supplemented with 1% BSA, 10 mM HEPES, 15 mM glucose, and the pH was adjusted to 7.4. TEER values were read to test membrane integrity at the beginning of the assay. The experiment was started by the addition of dosing solutions containing test compounds. Samples were taken from the donor compartment at 0/120 min and from the receiver compartment at 120 min. Each compound was tested in two separate replicate wells. All samples were immediately collected in a 72:8:20 MeCN/MeOH:H2O mix to precipitate protein and stabilize the test compounds. Cells were dosed on the apical side to determine forward (A to B) permeability. To test for non-specific binding and compound instability, the total amount of drug was quantified at the end of the experiment and compared to the material present in the original dosing solution as a percentage of recovery. Samples were analyzed by RF-QToF.

[3] = Predicted clearance in human liver microsomes; type: in vitro ADME; settings: pH 7.4, 1 μM compound, read-out: HLM CLint, pred (converted)
Protocol: Next, microsome stability was profiled in purified human liver microsomes (HLM).
Metabolic stability of compounds was assessed using HLM (Corning cat. 457117).[52] In this assay, 10 nL compounds at a concentration of 1 mM in 100% DMSO are dispensed into 384-well polypropylene plates using the Echo 550 acoustic liquid dispenser (Labcyte). Each plate contains 384 wells with a single test compound in each well.
A solution of HLM at 2 mg/mL in 100 mM K2HPO4/KH2PO4 pH 7.4 with 0.0225 mg/mL Alamethicin from Trichoderma viride (Sigma-Aldrich cat. A4665-10MG) was incubated on ice for 15 min. 5 μL of this solution was added to individual wells following 15 min incubation at room temperature; and supplemented with 5 μL NADPH Regenerating Solution of cofactors (Corning Gentest UGT Reaction Mix solutions A and B, cat. 451200 and 451220) containing 100 mM K2HPO4/KH2PO4 pH 7.4, 2.6 mM NADP^+, 6.6 mM glucose-6-phosphate, 6.6 mM MgCl2, 0.8 U/mL glucose-6-phosphate dehydrogenase, 0.1 mM sodium citrate, and 6.8 mM uridine diphosphate-glucuronic acid. The final concentration of analyte compounds at the beginning of the reactions was 1 μM. The reactions were incubated at 37 °C, and time points of 0, 5, 15, 30, 40, 50, 60, and 70 min were collected for further analysis. Background data were collected using reactions without analyte compounds.
Upon collection of the reaction time points, samples were quenched at the set time points with 30 μL of a solution of 72% acetonitrile, 8% methanol, 0.1% formic acid, 19.9% water, and labetalol as an internal standard (IS) at a concentration of 650 nM. Reaction plates were span in a centrifuge at a speed of 4000 rcf for 30 min and 4 °C, following a dilution of the 10 μL quenched reaction into 40 μL de-ionized water, yielding assay plates.
Samples were analyzed by a solid-phase extraction coupled with a quadrupole time-of-flight mass spectrometer, using an Agilent QToF 6530 RapidFire 360 system with C4 type A solid state cartridges. Analysis was performed in either positive or negative ionization modes. Mobile phases contained 0.1% formic acid in water for loading analytes onto solid state extraction cartridges, and 0.1% formic acid in acetonitrile for elution into the mass spectrometer in positive ionization mode, or 0.1% acetic acid in water for loading and 0.1% acetic acid in acetonitrile for extraction in negative ionization mode. Peak-area ratios of integrated counts for individual compounds to IS were plotted as a semi-logarithmic chart of log versus time. Initial, linear portion of decay was fitted to a linear regression equation to derive the half-time of a compound decay.
Pharmacological parameters for an analyte compound metabolism were calculated using the equations described in Table S2.
Table S2. Pharmacological parameters for an analyte compound metabolism were
calculated using the following equations:
Intrinsic Clearance (in Cl = ln 2
int, in vitro T1/2 ∗ Conc
Intrinsic Clearance Cl = Clint, in vitro ∗ Liver Mass ∗ Yield
Predicted Hepatic Cl = Clint ∗ QH
QH (Hepatic Blood Flow) = 1.3 L/hr/kg

[4] = fold change: ratio of potency against HXB2 K103N and parental HXB2
[5] = supplement CSV, fold change vs HXB2
[6] = fold change: ratio of potency against HXB2 Y181C and parental HXB2
[7] = HCl, pH 1.2, read-out: solubility HCl
[8] = phosphate-buffered saline, pH 7.4, read-out: solubility PBS
[9] = apparent permeability coefficient, A to B, pH 7.4
[10] = preliminary biological data, in words

Row | SMILES | EC50 (HIV-1 (IIIB strain)) | CC50 at 120 h (in vitro) | EC50 (HIV-1 HXB2) | EC50 (HIV-1 HXB2 K103N variant) | K103N (FC) (HIV-1 HXB2 K103N variant; [4]) | K103N (FC) (HIV-1 HXB2 K103N variant; [5]) | EC50 (HIV-1 HXB2 Y181C variant) | Y181C (FC) (HIV-1 HXB2 Y181C variant; [6]) | Y181C (FC) (HIV-1 HXB2 Y181C variant; [5]) | solubility [1, 7] | solubility [1, 8] | HCl sol [1] | PBS sol [1] | Papp A→B at 120 min ([2]; supplement CSV) | Papp A→B at 120 min [2, 9] | CLint scaled at 1.167 h, 1 µM [3] | also measured
1 | Cc1cc(C#N)cc(C)c1-n1c(=O)[nH]c2cnc(Nc3ccc(C#N)cc3)nc21 [Compound 1, 4-{2-[(4-Cyanophenyl)amino]-8-oxo-8,9-dihydro-7H-purin-9-yl}-3,5-dimethylbenzonitrile] | 62.3 nM | 43700 nM | 73.7 nM | 230 nM | 3.1 | 3.1 | 241 nM | 3.3 | 3.3 | 73.2 µM (≈ 27.9 µg/mL) | 6.6 µM (≈ 2.52 µg/mL) | 73.2 µM | 6.6 µM | 4.9 ×10⁻⁶ cm/s | 4.9 ×10⁻⁶ cm/s | 8.83 mL/min/kg | –
2 | Cc1cc(/C=C/C#N)cc(C)c1-n1c(=O)[nH]c2cnc(Nc3ccc(C#N)cc3)nc21 [Compound 2, 4-[(9-{4-[(1E)-2-Cyanoeth-1-en-1-yl]-2,6-dimethylphenyl}-8-oxo-8,9-dihydro-7H-purin-2-yl)amino]benzonitrile] | 2.5 nM | 23300 nM | 2.2 nM | 4.5 nM | 2.0 | 2.0 | 10.6 nM | 4.8 | 4.8 | 61.2 µM (≈ 24.9 µg/mL) | 10.4 µM (≈ 4.24 µg/mL) | 61.2 µM | 10.4 µM | 5.6 ×10⁻⁶ cm/s | 5.6 ×10⁻⁶ cm/s | 16.7 mL/min/kg | –
3 | Cc1cc(C#N)cc(C)c1N1CCC(=O)Nc2cnc(Nc3ccc(C#N)cc3)nc21 [Compound 5, 4-{2-[(4-Cyanophenyl)amino]-6-oxo-5H,6H,7H,8H,9H-pyrimido[4,5-b][1,4]diazepin-9-yl}-3,5-dimethylbenzonitrile] | 43.4 nM | – | 29.4 nM | 70.7 nM | 2.4 | 2.4 | 198 nM | 6.7 | 6.7 | 87.3 µM (≈ 35.7 µg/mL) | 1.4 µM (≈ 0.573 µg/mL) | 87.3 µM | 1.4 µM | 3.5 ×10⁻⁶ cm/s | 3.5 ×10⁻⁶ cm/s | 15.5 mL/min/kg | CC50 at 5 days (in vitro): > 50000 nM
4 | Cc1cc(Br)cc(C)c1N1CC(=O)Nc2cnc(Nc3ccc(C#N)cc3)nc21 [Compound 14, 4-{[8-(4-Bromo-2,6-dimethylphenyl)-6-oxo-5,6,7,8-tetrahydropteridin-2-yl]amino}benzonitrile] | – | – | – | – | – | – | – | – | – | – | – | – | – | – | – | – | activity against the WT virus (HIV-1 (IIIB strain); [10]): low nanomolar activity; potency against K103N mutated strain (HIV-1 HXB2 K103N variant; [10]): high potency; potency against Y181C mutated strain (HIV-1 HXB2 Y181C variant; [10]): high potency; aqueous solubility ([1]; preliminary data, in words): significantly improved
5 | Cc1cc(CO)cc(C)c1N1CC(=O)Nc2cnc(Nc3ccc(C#N)cc3)nc21 [Compound 28, 4-({8-[4-(hydroxymethyl)-2,6-dimethylphenyl]-6-oxo-5,6,7,8-tetrahydropteridin-2-yl}amino)benzonitrile] | 78.9 nM | 41600 nM | – | – | – | – | – | – | – | – | – | – | – | – | – | – | –
6 | Cc1cc(CO)cc(C)c1-n1c(=O)[nH]c2cnc(Nc3ccc(C#N)cc3)nc21 [Compound 32, 4-({9-[4-(Hydroxymethyl)-2,6-dimethylphenyl]-8-oxo-8,9-dihydro-7H-purin-2-yl}amino)benzonitrile] | 174 nM | 39700 nM | – | – | – | – | – | – | – | – | – | – | – | – | – | – | –
7 | Cc1cc(CO)cc(C)c1N1CCC(=O)Nc2cnc(Nc3ccc(C#N)cc3)nc21 [Compound 39, 4-({9-[4-(hydroxymethyl)-2,6-dimethylphenyl]-6-oxo-5H,6H,7H,8H,9H-pyrimido[4,5-b][1,4]diazepin-2-yl}amino)benzonitrile] | 198 nM | 15900 nM | – | – | – | – | – | – | – | – | – | – | – | – | – | – | –
8 | Cc1cc(C=O)cc(C)c1-n1c(=O)[nH]c2cnc(Nc3ccc(C#N)cc3)nc21 [Compound 40, 4-{[9-(4-Formyl-2,6-dimethylphenyl)-8-oxo-8,9-dihydro-7H-purin-2-yl]amino}benzonitrile] | 209 nM | – | – | – | – | – | – | – | – | – | – | – | – | – | – | – | CC50 at 5 days (in vitro): > 50000 nM
9 | Cc1cc(C=O)cc(C)c1N1CC(=O)Nc2cnc(Nc3ccc(C#N)cc3)nc21 [Compound 41, 4-{[8-(4-Formyl-2,6-dimethylphenyl)-6-oxo-5,6,7,8-tetrahydropteridin-2-yl]amino}benzonitrile] | 76.7 nM | 14200 nM | – | – | – | – | – | – | – | – | – | – | – | – | – | – | –
10 | Cc1cc(C=O)cc(C)c1N1CCC(=O)Nc2cnc(Nc3ccc(C#N)cc3)nc21 [Compound 42, 4-{[9-(4-Formyl-2,6-dimethylphenyl)-6-oxo-5H,6H,7H,8H,9H-pyrimido[4,5-b][1,4]diazepin-2-yl]amino}benzonitrile] | 94.3 nM | 5000 nM | – | – | – | – | – | – | – | – | – | – | – | – | – | – | –
